Laboratory results as given in patent US6660752B2, “2,6-Substituted chroman derivatives useful as beta-3 adrenoreceptor agonists” (Bayer Pharmaceuticals Corporation, priority 2001, dated 2003).
Where a name gives a salt, the structure may show the parent alone.

Each compound was assayed against T1, human beta-3-adrenergic receptor (Homo sapiens, UniProt P13945) (assay: cAMP production (beta-3 agonist activity) in CHO cells stably expressing human beta-3-adrenergic receptor, cAMP SPA). Details: CHO cells expressing full-length human beta-3-adrenergic receptor, 30 min incubation, 10 μM to 3 nM, read-out: Beta-3 Agonistic Activity: Compounds with EC50 values >1 μM.
T1 construct: stably express full-length human beta-3-adrenergic receptor; expressed in transfected cells; host or cells: Chinese hamster ovary (CHO) cells
Assay type: cell-based
Outline: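 CHO cells stably expressing full-length receptor treated 30 min at 37° C with compounds (10 μM to 3 nM, 3-fold dilutions) in KRP buffer pH 7.4 with […] IBMX and 1% DMSO. Lysed cells assayed for cAMP by SPA; EC50 derived from cAMP concentration-response curves.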

T1 sequence (P13945 whole entry): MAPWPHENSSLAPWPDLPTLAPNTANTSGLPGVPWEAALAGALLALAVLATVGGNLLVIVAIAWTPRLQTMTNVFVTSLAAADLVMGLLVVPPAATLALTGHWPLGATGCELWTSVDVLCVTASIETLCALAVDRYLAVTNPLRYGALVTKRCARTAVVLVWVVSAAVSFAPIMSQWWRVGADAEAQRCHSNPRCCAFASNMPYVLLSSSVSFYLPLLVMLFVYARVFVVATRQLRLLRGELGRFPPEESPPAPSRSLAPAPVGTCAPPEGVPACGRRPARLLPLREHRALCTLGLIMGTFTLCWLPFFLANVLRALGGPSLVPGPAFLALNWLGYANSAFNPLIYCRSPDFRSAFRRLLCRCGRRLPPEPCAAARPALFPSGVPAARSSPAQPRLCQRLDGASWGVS

Compound	EC50
O[C@@H](CNC[C@H]1CCc2cc(-c3cccc(Cl)c3)ccc2O1)c1cccnc1 [Example 41]	> 1000 nM

Same assay, conditions: CHO cells expressing full-length human beta-3-adrenergic receptor, 30 min incubation, 10 μM to 3 nM, read-out: Beta-3 Agonistic Activity: Compounds with EC50 values ≦1 μM

Compound	EC50
Nc1ccc(-c2ccc3c(c2)CC[C@H](CNC[C@H](O)c2cccnc2)O3)nc1 [Example 317, (1R)-2-({[(2R)-6-(5-amino-2-pyridinyl)-3,4-dihydro-2H-chromen-2-yl]methyl}amino)-1-(3-pyridinyl)ethanol Tetrahydrochloride]	≤ 1000 nM
O[C@@H](CNC[C@H]1CCc2cc(-c3ccc(-c4ccccc4)cc3)ccc2O1)c1cccnc1 [Example 47]	≤ 1000 nM
CCCOc1cc(-c2ccc3c(c2)CC[C@H](CNC[C@H](O)c2cccnc2)O3)ccc1C(=O)O [Example 186, 4-[(2R)-2-({[(2R)-2-hydroxy-2-(3-pyridinyl)ethyl]amino}methyl)-3,4-dihydro-2H-chromen-6-yl]-2-propoxybenzoic acid]	≤ 1000 nM
CCOCC(=O)NS(=O)(=O)c1ccc(-c2ccc3c(c2)CC[C@H](CNC[C@H](O)c2cccnc2)O3)cc1 [Example 286, N-(ethoxyacetyl)-4-[(2R)-2-({[(2R)-2-hydroxy-2-(3-pyridinyl)ethyl]amino}methyl)-3,4-dihydro-2H-chromen-6-yl]benzenesulfonamide]	≤ 1000 nM
CC(C)Cc1cc(-c2ccc3c(c2)CC[C@H](CNC[C@H](O)c2cccnc2)O3)ccc1C(=O)O [Example 211, 4-[(2R)-2-({[(2R)-2-hydroxy-2-(3-pyridinyl)ethyl]amino}methyl)-3,4-dihydro-2H-chromen-6-yl]-2-isobutylbenzoic Acid]	≤ 1000 nM
N#Cc1ccc(NS(=O)(=O)c2cccc(-c3ccc4c(c3)CC[C@H](CNC[C@H](O)c3cccnc3)O4)c2)cc1 [Example 257]	≤ 1000 nM
O=S(=O)(Nc1ccc(-c2ccc3c(c2)CC[C@H](CNC[C@H](O)c2cccnc2)O3)nc1)c1ccc(Cl)cc1 [Example 320, 4-chloro-N-{6-[(2R)-2-({[(2R)-2-hydroxy-2-(3-pyridinyl)ethyl]amino}methyl)-3,4-dihydro-2H-chromen-6-yl]-3-pyridinyl}benzenesulfonamide]	≤ 1000 nM
O=S(=O)(Nc1ccccn1)c1cccc(-c2ccc3c(c2)CC[C@H](CNC[C@H](O)c2cccnc2)O3)c1 [Example 254]	≤ 1000 nM
COc1ccc(-c2ccc3c(c2)CC[C@H](CNC[C@H](O)c2cccnc2)O3)cc1S(=O)(=O)Nc1nccc(C)n1 [Example 269]	≤ 1000 nM
N#Cc1ccc(NS(=O)(=O)c2ccc(-c3ccc4c(c3)CC[C@H](CNC[C@H](O)c3cccnc3)O4)cc2)cc1 [Example 256]	≤ 1000 nM
CCOC(=O)c1ccc(Oc2cc(-c3ccc4c(c3)CC[C@H](CNC[C@H](O)c3cccnc3)O4)ccc2C(=O)O)cc1 [Example 197, 2-[4-(ethoxycarbonyl)phenoxy]-4-[(2R)-2-({[(2R)-2-hydroxy-2-(3-pyridinyl)ethyl]amino}methyl)-3,4-dihydro-2H-chromen-6-yl]benzoic acid]	≤ 1000 nM
COc1ccc(NC(=O)NS(=O)(=O)c2cccc(-c3ccc4c(c3)CC[C@H](CNC[C@H](O)c3cccnc3)O4)c2)cc1 [Example 334]	≤ 1000 nM
COc1ccc([C@H](O)CNC[C@H]2CCc3cc(-c4ccc(C(=O)O)cc4)ccc3O2)cn1 [Example 343]	≤ 1000 nM
Cc1cc(Cl)ccc1NC(=O)NS(=O)(=O)c1ccc(-c2ccc3c(c2)CC[C@H](CNC[C@H](O)c2cccnc2)O3)cc1 [Example 330, 3-((1R)-2-{[((2R)-6-{4-[({[(4-chloro-2-methylphenyl)amino]carbonyl}amino)sulfonyl]phenyl}-3,4-dihydro-2H-chromen-2-yl)methyl]amino}-1-hydroxyethyl)pyridine]	≤ 1000 nM
O=C(Nc1ccc(-c2ccc3c(c2)CC[C@H](CNC[C@H](O)c2cccnc2)O3)nc1)c1ccccc1 [Example 322]	≤ 1000 nM
O=C(NC1CCCCC1)NS(=O)(=O)c1ccc(-c2ccc3c(c2)CC[C@H](CNC[C@H](O)c2cccnc2)O3)cc1 [Example 329, 3-{(1R)-2-[({(2R)-6-[4-({[(cyclohexylamino)carbonyl]amino}sulfonyl)phenyl]-3,4-dihydro-2H-chromen-2-yl}methyl)amino]-1-hydroxyethyl}pyridine]	≤ 1000 nM
Cc1ccnc(NS(=O)(=O)c2ccc(-c3ccc4c(c3)CC[C@H](CNC[C@H](O)c3cccnc3)O4)cc2)n1 [Example 268, 4-[(2R)-2-({[(2R)-2-hydroxy-2-(3-pyridinyl)ethyl]amino}methyl)-3,4-dihydro-2H-chromen-6-yl]-N-(4-methyl-2-pyrimidinyl)benzenesulfonamide]	≤ 1000 nM
O=S(=O)(Nc1cccnc1)c1ccc(-c2ccc3c(c2)CC[C@H](CNC[C@H](O)c2cccnc2)O3)cc1 [Example 253, 4-[(2R)-2-({[(2R)-2-hydroxy-2-(3-pyridinyl)ethyl]amino}methyl)-3,4-dihydro-2H-chromen-6-yl]-N-(3-pyridinyl)benzenesulfonamide]	≤ 1000 nM
CC(=O)c1ccc(NS(=O)(=O)c2ccc(-c3ccc4c(c3)CC[C@H](CNC[C@H](O)c3cccnc3)O4)cc2OC(F)(F)F)cc1 [Example 263]	≤ 1000 nM
